Calls of active or inactive are those of the source.
Experiments:
Candida albicans = experiment: Antimicrobial activity against Candida albicans by agar dilution method; assay type: functional, organism-based
Klebsiella aerogenes = experiment: Antimicrobial activity against Enterobacter aerogenes by agar dilution method; assay type: functional, organism-based
[1] = molecular target: Mu-type opioid receptor (Rattus norvegicus) (UniProt P33535); experiment: Displacement of [3H]DAMGO from rat mu opioid receptor expressed in GH3 cells; assay type: cell-based
Sequence of Mu-type opioid receptor (Rattus norvegicus) (P33535 whole entry): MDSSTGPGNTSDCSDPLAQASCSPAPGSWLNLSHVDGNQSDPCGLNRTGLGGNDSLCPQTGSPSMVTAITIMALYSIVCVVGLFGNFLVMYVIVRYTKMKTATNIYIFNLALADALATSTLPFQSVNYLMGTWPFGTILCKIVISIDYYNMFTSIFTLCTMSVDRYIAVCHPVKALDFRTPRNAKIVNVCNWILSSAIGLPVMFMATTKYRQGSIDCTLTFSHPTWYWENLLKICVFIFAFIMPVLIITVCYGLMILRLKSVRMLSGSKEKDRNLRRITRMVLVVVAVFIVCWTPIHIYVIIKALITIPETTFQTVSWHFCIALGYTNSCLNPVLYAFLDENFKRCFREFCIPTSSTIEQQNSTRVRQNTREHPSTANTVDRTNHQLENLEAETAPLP

Bacillus subtilis = experiment: Antimicrobial activity against Bacillus subtilis by agar dilution method; assay type: functional, organism-based
Staphylococcus aureus = experiment: Antimicrobial activity against Staphylococcus aureus by agar dilution method; assay type: functional, organism-based
Escherichia coli = experiment: Antimicrobial activity against Escherichia coli by agar dilution method; assay type: functional, organism-based
Bel-7402 = experiment: Cytotoxicity against human BEL-7402 cells by SRB method; assay type: functional, cell-based
HL-60 = experiment: Cytotoxicity against human HL60 cells by MTT assay; assay type: functional, cell-based
A549 = experiment: Cytotoxicity against human A549 cells by SRB method; assay type: functional, cell-based
P388 = experiment: Cytotoxicity against mouse P388 cells by MTT assay; assay type: functional, cell-based

Measured: Activity

CCCCCCCCCC(=O)O[C@H]1[C@H](O[C@@H]2[C@@H](O)[C@H]3OC(=O)CCCCCCCCCC[C@H](CCCCC)O[C@@H]4O[C@H](C)[C@H](O)[C@H](O)[C@H]4O[C@@H]3O[C@H]2C)O[C@@H](C)[C@H](O[C@@H]2O[C@@H](C)[C@H](OC(=O)C(C)C)[C@@H](OC(=O)/C=C/c3ccccc3)[C@H]2O)[C@H]1O[C@@H]1O[C@@H](C)[C@H](O)[C@@H](O)[C@H]1O
inactive: all assays above
